Measured values published in patent US11147801B2, “Methods of use for trisubstituted benzotriazole derivatives as dihydroorotate oxygenase inhibitors” (Aurigene Discovery Technologies Limited, priority 2017, dated 2021).

Columns and labels:
L1210 murine leukemia = settings: cited from earlier work
DHODH [1] = biological target: T1, DHODH (Homo sapiens (Human), UniProt Q02127); settings: cited from earlier work
Target sequence in this assay (Q02127 whole entry, species assumed): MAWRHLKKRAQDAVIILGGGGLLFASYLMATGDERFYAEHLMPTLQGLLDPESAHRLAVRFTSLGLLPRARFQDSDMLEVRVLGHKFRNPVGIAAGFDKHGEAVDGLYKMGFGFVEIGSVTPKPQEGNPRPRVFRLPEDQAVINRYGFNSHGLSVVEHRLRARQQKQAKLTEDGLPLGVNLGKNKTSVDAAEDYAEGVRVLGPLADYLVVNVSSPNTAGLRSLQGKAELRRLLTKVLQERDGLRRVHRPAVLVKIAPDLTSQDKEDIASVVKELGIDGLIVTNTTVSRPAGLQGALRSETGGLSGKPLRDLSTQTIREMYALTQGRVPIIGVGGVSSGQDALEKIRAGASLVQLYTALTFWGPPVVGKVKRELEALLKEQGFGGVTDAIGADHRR

DHODH [2] = biological target: T1, DHODH; assay: DHODH activity assay (coupled enzyme assay, DCIP reduction); assay type: biochemical; settings: read-out: DHODH inhibition activity, IC50 group
Description: The DHODH activity assay is a coupled enzyme assay in which oxidation of DHO and subsequent reduction of ubiquinone are stoichiometrically equivalent to the reduction of DCIP ([…]). The reduction of DCIP is accompanied by a loss of absorbance at 610 nm.
Buffer Preparation: 50 mM tris HCl, 150 mM KCl, and pH 8.0, 0.8% triton.
L-Dihydroorotic acid stock solution of 20 mM in buffer.
2, 6-Dichloroindophenol Sodium salt hydrate stock solution of 20 mM in buffer.
Decylubiquinone stock solution of 20 mM in buffer.
5 μL of Dimethyl sulfoxide or a compound of formula (I) in DMSO solution was added to the wells of a 96 well plate. Compounds of formula (I) were measured at 10 μM.
Protein along with buffer was added, so that the total volume including the DMSO was 87 μL. Compound and protein were incubated for half an hour at room temperature after mixing. 5 μL of 20 mM solution of L-Dihydroorotic acid, 5 μL of 2 mM solution of Decylubiquinone and 3 μL of 2 mM solution of 2, 6-Dichloroindophenol sodium salt hydrate were added to the above solution (total assay volume 100 μL). The mixture was stirred for 2 min and absorbance was recorded at every 10 min at 610 nanometers.
Percent inhibition is calculated as follows: […]
A 2 mM DMSO stock solution of the selected trisubstituted benzoimidazole and benzotriazole derivatives of formula (I) of the present invention to be examined was prepared. Subsequent ⅓rd dilutions were made.
5 μL of each stock of compound of formula (I) was used for each 100 μL assay. Therefore, 5 μL of the 2 mM stock provided 100 μL of 100 μM solution of compound of formula (I), when made up with buffer, protein and substrate. See also: Ulrich et al. (2001) Eur. J. Biochem.268, 1861-1868.
Target sequence in this assay (Q02127 whole entry): as the sequence (Q02127 whole entry, species assumed) above

Ramos cells = assay: Ramos proliferation assay (XTT); assay type: cell-based; settings: Homo sapiens, 72 hrs; for inhibition at 10 µM: read-out: Maximum % Inhibition (at 10 μM); for IC50: XTT; for inhibition at 30 µM: read-out: Maximum % Inhibition at 30 μM
Text: Cell proliferation assay is a sensitive method for quantification of viable cells in cytotoxicity or proliferation assay. The XTT (2,3-bis[2-Methoxy-4-nitro-5-sulfophenyl]-2 H-tetrazolium-5-carboxyanilide inner salt) system is a means of measuring the activity of living cells via mitochondrial dehydrogenases. Mitochondrial dehydrogenases of viable cells cleave the tetrazolium ring of XTT, yielding orange formazon crystals which are soluble in aqueous solutions. The XTT solution is potentiated by the addition of an electron coupling agent, phenazine methosulphate (PMS) to the reaction. The resulting orange colour is spectrophotometrically measured at 450 nm. An increase or decrease in cell numbers results in a concomitant change in the amount of formazon formed, indicating the degree of cytotoxicity caused by the test material.
Dissolve 17.7 g IMDM (Iscove's Modified Dulbecco's Medium) powder, 1.5 g sodium bicarbonate pH 7.2-7.4 in 1 L MiliQ water, add 1% Pencilin/ Streptomycin and 10% FBS.
Dissolve 10.6 g Ham's F12 powder, 1.5 g sodium bicarbonate pH 7.2-7.4 in 1 L MiliQ water, add 1% Penicillin/Streptomycin. DMSO used as vehicle.
Ramos cells were re-suspended to a density of 1×10^5 cells/ ml in complete IMDM medium. 95 μL of this cell suspension was added to the 96-well plate to seed ˜10,000 cells per well. The plates were incubated at 37° C. under a humidified atmosphere of 5% CO2 for ˜1 hour before compound addition.
Test compounds (Refer to Table 1) were dissolved in 100% DMSO to generate a 2/6/10/20 mM stock solution. A 200× concentration of the required final concentrations was prepared in DMSO. 10 μL of each concentration (200×) was then diluted in 90 μL of serum-free Ham's F12 medium to get an intermediate concentration of 20× in medium. The DMSO concentration in this step is 10% (Intermediate dilution). 5 μL of each intermediate dilution was then added in triplicates in the previously seeded 96-well plate. The final DMSO concentration was 0.5% in the experimental wells. Cells treated with 0.5% DMSO served as positive control. 100 μL, of complete IMDM medium served as media blank for data analysis. 200 μL, of 1× PBS was added in all corner wells of the assay plate. Plates were then incubated for 72 hrs in an incubator with 5% CO2 at 37° C.
On termination day, 100 μl of XTT solution (1 mg/ml XTT supplemented with 25 μM PMS in Ham's F12 medium) was added to each well. Plates were incubated for 2 hrs. The amount of formazon produced was determined by reading the absorbance of the plate using VICTOR X5 multilabel plate reader at wavelength of 450 nm. The IC50 values were determined as concentrations that reduced cell viability by 50% and the curve was plotted with GraphPad Prism 6.0.
Percent (%) Inhibition was calculated by normalizing DMSO control values to 100% using the formula: % Inhibition=[…](Abs450test compound−blank)/(Abs450positive control−blank)*100
Test compound contains cells, test compound, IMDM medium and 0.5% DMSO
Positive control contains cells, IMDM medium and 0.5% DMSO
Blank contains IMDM medium

| Structure (SMILES) | IC50 (DHODH [2]) [nM] | IC50 (Ramos cells) [nM] | Anticancer activity (L1210 murine leukemia) | Fold greater inhibitor of DHODH than of protein tyrosine kinase (DHODH [1]) | inhibition at 10 µM (Ramos cells) [%] | inhibition at 30 µM (Ramos cells) [%] |
| --- | --- | --- | --- | --- | --- | --- |
| Cc1c(-c2ccc(-c3ccccc3F)cc2)nc2ccc(F)cc2c1C(=O)O [Brequinar, 6-Fluoro-2-(2′-fluoro[1,1′-biphenyl]-4-yl)-3-methyl-4-quinolinecarboxylic acid] | – | – | exhibits an anticancer activity | – | – | – |
| C/C(O)=C(\C#N)C(=O)Nc1ccc(C(F)(F)F)cc1 [Teriflunomide] | – | – | – | 100-1,000 fold | – | – |
| CN(C)Cc1cccc(-c2c(F)c(F)c(-c3cc(C(=O)O)c4c(c3)nnn4C)c(F)c2F)c1 [Compound 40, 5-(3′-((dimethylamino)methyl)-2,3,5,6-tetrafluoro-[1,1′-biphenyl]-4-yl)-1-methyl-1H-benzo[d][1,2,3]triazole-7-carboxylic acid] | 101 to 1000 | 11800 | – | – | – | 84 |
| Cn1nnc2cc(-c3ccc(-c4ccccc4)cc3)cc(C(=O)O)c21 [Compound 3, 5-([1,1′-biphenyl]-4-yl)-1-methyl-1H-benzo[d][1,2,3]triazole-7-carboxylic acid] | 101 to 1000 | 524 | – | – | – | 113 |
| CN1CCN(Cc2ccccc2-c2ccc(-c3cc(C(=O)O)c4nn(C)nc4c3)cc2)CC1 [Compound 30, 2-methyl-6-(2′-((4-methylpiperazin-1-yl)methyl)-[1,1′-biphenyl]-4-yl)-2H-benzo[d][1,2,3]triazole-4-carboxylic acid] | > 1000 | – | – | – | – | 56 |

Further lines, with some results ahead:

| IC50 (DHODH [2]) [nM] | IC50 (Ramos cells) [nM] | Structure (SMILES) | Anticancer activity (L1210 murine leukemia) | Fold greater inhibitor of DHODH than of protein tyrosine kinase (DHODH [1]) | inhibition at 10 µM (Ramos cells) [%] | inhibition at 30 µM (Ramos cells) [%] |
| --- | --- | --- | --- | --- | --- | --- |
| 101 to 1000 | 675 | Cn1nnc2cc(-c3c(F)c(F)c(-c4cccc(CN5CCCCC5)c4)c(F)c3F)cc(C(=O)O)c21 [Compound 34, 1-methyl-5-(2,3,5,6-tetrafluoro-3′-(piperidin-1-ylmethyl)-[1,1′-biphenyl]-4-yl)-1H-benzo[d][1,2,3]triazole-7-carboxylic acid.2,2,2-trifluoroacetic acid] | – | – | 111 | – |
| > 1000 | 3720 | Cn1nnc2c(C(=O)O)cc(-c3ccc(-c4cccc(CN5CCCCC5)c4)cc3)cc21 [Compound 20, 1-methyl-6-(3′-(piperidin-1-ylmethyl)-[1,1′-biphenyl]-4-yl)-1H-benzo[d][1,2,3]triazole-4-carboxylic acid] | – | – | – | 129 |
| > 1000 | 8410 | Cn1nnc2cc(-c3ccc(-c4cccc(CN5CCOCC5)c4)cc3)cc(C(=O)O)c21 [Compound 15, 1-methyl-5-(3′-(morpholinomethyl)-[1,1′-biphenyl]-4-yl)-1H-benzo[d][1,2,3]triazole-7-carboxylic acid] | – | – | – | 96 |
| > 1000 | 14600 | CC(=O)Nc1cccc(-c2ccc(-c3cc(C(=O)O)c4c(c3)nnn4C)cc2)c1 [Compound 32, 5-(3′-acetamido-[1,1′-biphenyl]-4-yl)-1-methyl-1H-benzo[d][1,2,3]triazole-7-carboxylic acid] | – | – | – | 74 |
| > 1000 | 1350 | Cn1nnc2cc(-c3ccc(-c4ccc(CN5CCOCC5)cc4)cc3)cc(C(=O)O)c21 [Compound 31, 1-methyl-5-(4′-(morpholinomethyl)-[1,1′-biphenyl]-4-yl)-1H-benzo[d][1,2,3]triazole-7-carboxylic acid] | – | – | 81 | – |
